The test system of assay [1] is phospho-HSP20 in HEK293 cells. As to the kind of experiment: HSP20 Ser16 phosphorylation in HSP20-transfected HEK293 cells treated with peptide. Particulars: 10 μM peptide, 0-120 min. The assay is classed as cell-based. The source says: (§1) FIG. 6. Peptide disruption of the PDE4D-HSP20 complex promotes PKA phosphorylation on Ser16. A, Upper panel. HEK293 cells were transfected with HSP20 and PDE4D5. Immunoprecipitation of HSP20 done in the presence increasing concentrations of Peptide 906 (SEQ ID NO: 36) and Peptide control (SEQ ID NO: 37) were probed for PDE4D5. Lower panel. Densitometric analysis of amount of PDE4D5 in HSP20 immunoprecipitates normalised to expression level. Data representative of n=3. B, Purified preparations of HSP20-His and PDE4D5-GST were subject to an ELISA assay containing increasing amounts of ‘Peptide 906’ and ‘peptide control’. C, Upper panel, HSP20 was transfected into HEK293 cells and treated with ‘Peptide 906’ for indicated times. Cellular lysates were blotted for HSP20 and phospho-HSP20. Middle panel, HSP20 was transfected into HEK293 cells and treated with ‘Peptide 906’ or ‘peptide control’ for indicated times. Cellular lysates were blotted for HSP20 and phospho-HSP20. Lower panel, Densitometric analysis of phosphorylation of HSP20 normalised to expression level (n=3).
PolyFect transfection reagent was from Qiagen. […]
HEK293B2 cells are a stable cell line overexpressing the GFP-tagged β2AR were cultured as previously described^48. […] Protein concentration of lysates were determined using the Bradford assay and all samples were equalised for protein concentration. […]

Assay [2] concerns neonatal cardiac myocytes. Put plainly: Cardiac myocyte cell size, manual cross-sectional area. Type of assay: cell-based, rat. Particulars: 24 hour isoprenaline 10 μM, 30 min pre-treatment with 10 μM peptide. How it is done: FIG. 7. Peptide disruption of the PDE4D-HSP20 complex attenuates the hypertrophic response triggered by constant […]-agonist treatment. A, Upper panel. The area covered by isolated cardiac myocytes was used as a measure of cell size. Lower panel, Graphical depiction of the mean areas (N=100) of cells following 24 hours of indicated treatments. B, impedance measurements were used to calculate continuous normalised cell index using exCELLigence technology Normalised mean (n=4) cell index after 24 hours of indicated treatments.
Cardiomyocytes were plated out on gelatin (Sigma) pre-coated 6-well plates and placed in an incubator at 37° C. and an atmosphere of 5% CO2. After 24 h the cardiomyocytes were cultured in a serum-free condition for 48 h before experiments. The cardiomyocytes were then challenged for 24 h with either 10 μM isoprenaline alone or isoprenaline following a 30 min pre-treatment with 10 μM rolipram, 10 μM bs906 or 10 μM control peptide. Thereafter, cell size was determined on phase-contrast microscope. […] from randomly selected microscope images (400×) were captured digitally and analysed. Cross-sectional area was determined by the following formula: cross-sectional area=(radius)^2×π. Values are expressed as means±SE of five separate culture preparations. A f-test was performed to compare the two groups, and the P values are indicated.

The target of assay [3] is T1, His-HSP20 / GST-PDE4D5 (Homo sapiens, UniProt O14558).
T1 construct: made in house; host or cells: E. coli (BL21 for His-Hsp20)
T1 sequence (O14558 1-160): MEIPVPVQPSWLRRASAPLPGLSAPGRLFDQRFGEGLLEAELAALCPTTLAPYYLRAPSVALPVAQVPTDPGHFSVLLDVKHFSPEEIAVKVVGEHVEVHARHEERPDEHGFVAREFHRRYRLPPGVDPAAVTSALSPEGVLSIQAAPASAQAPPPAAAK
Put plainly: Hsp20/PDE4D5 ELISA assay with purified proteins. Particulars: increasing amounts of peptide. Type of assay: binding.
Text: as §1
His-HSP20 and GST-PDE4D5 were purified as previously described. […] Plates were read as soon as possible using the luminescence program on a Packard Fusion plate reader (1 s reading per well). […]
A general note: ELISA stands for enzyme-linked immunosorbent assay.

Where no end group is shown, it is not given here.

Regarding “Peptide 906: stearoylated, cell-permeable disrupter peptide of PDE4D5 residues E468-K492 (SEQ ID NO: 36) (ENHHLAVGFKLLQEENSDIFQNLTK; also: stearoylated, site not given here)”, in assay [1], the “phosphorylation of HSP20 at Ser16” value is “robust and significant increase in the phosphorylation of HSP20 at Ser16”. Moreover, the “cell size (cross-sectional area) of cardiac myocytes” value in assay [2] is on record as “could be rescued”. Besides, the “association between PDE4D5 and HSP20 in ELISA with purified proteins” value in assay [3] was “attenuated the association between PDE4D5 and HSP20”.
